Results as given in patent US9399625B2, “Acridone compounds” (Oregon Health & Science University, priority 2006, dated 2016).
Read-outs that look alike come from different tables or passages of the source.

Legend:
[1] = Metabolic stability and fate in hepatic S9 fraction with NADPH; assay type: in vitro ADME, murine; conditions: 50 μM, NADPH 1 mM, 10, 30 and 60 min
Method: This example investigates the metabolic stability and fate of T3.5 in the presence of NADPH and a murine hepatic S9 fraction. Hepatic S-9 fractions were incubated with 50 μM T3.5 in the presence of NADPH (1 mM) for 10, 30 and 60 min. HPLC was conducted with a Hypersil Gold column that is stable at high pH. […] The full scan mass spectrum had the isotopic ratio expected for the chlorine substituted acridone ring. […] The two unresolved peaks most likely represent de-ethylation of the tertiary amine on each side chain.
A second de-ethylation also occurred with the prolonged incubation as evidenced by the peak at 17.5 min when monitored at m/z 388.1 (loss of m/z=56). Another dealkylated metabolite was monitored at m/z 345.1 and corresponds to the loss of the triethylamine side chain (loss of m/z=99) from the acridone ring. The dealkylation could occur from either the aryl ether side chain or from the acridone ring nitrogen. The later would result in the production of the active compound T2. […] In addition to the dealkylated products, a hydroxylated metabolite was also detected by monitoring at m/z 460.2 (addition of m/z=16). The hydroxylation could occur on the acridone ring or on one of the primary carbons on the ethylamine side chains. Further MS/MS experiments will help establish the site of hydroxylation.

[2] = test system: CQ-sensitive D6 strain of P. falciparum; experiment: In vitro antimalarial activity, SYBR Green MSF assay, D6; assay type: cell-based; conditions: Plasmodium falciparum, D6
Text: This example describes the screening of disclosed antimalarial acridones against the CQ-sensitive D6 strain and the MDR Dd2 strain of P. falciparum for in vitro antimalarial activity.

CCN(CC)CCOc1ccc2c(=O)c3ccc(Cl)cc3n(CCN(CC)CC)c2c1 [T3.5, 3-(2-diethylaminoethoxy)-6-chloro-10-(2-diethylaminoethyl)-9-acridone]
most abundant metabolites [1]: de-ethylated products | IC50 ([2]; Table 2, average of 4 independent experiments, read-out: IC50, D6): 50 nM | IC50 ([2]; Table 4, read-out: IC50 P. falciparum D6): 44 nM
